Where two headings read alike, the source gives them in different places.
What was measured:
Type in all cases: binding
[1] = target: T1, EIF2C2/Ago2 PAZ domain (Ago2PAZ) (Homo sapiens, UniProt Q9UKV8); test: ITC displacement (UMP titrated into AMP-saturated protein); conditions: 25 mM potassium phosphate pH 7; 12°C; competition with UMP; unreliable (estimated, direct titration ND)
T1 construct: PAZ domain, residues 226-379, hexahistidine tag (pQE30, BamHI/HindIII), tag removal not mentioned; expressed in E. coli; Talon and Sephacryl S200HR
From the text: ITC displacement (UMP titrated into AMP-saturated protein) on EIF2C2/Ago2 PAZ domain (Ago2PAZ)

[2] = target: T1, EIF2C2/Ago2 PAZ domain (Ago2PAZ); test: isothermal titration calorimetry
[3] = target: T1, EIF2C2/Ago2 PAZ domain (Ago2PAZ); test: ITC displacement (UMP titrated into dAMP-saturated protein); conditions: 25 mM potassium phosphate pH 7; 12°C; competition with UMP; unreliable (estimated, direct titration ND)
From the text: ITC displacement (UMP titrated into dAMP-saturated protein) on EIF2C2/Ago2 PAZ domain (Ago2PAZ)

[4] = target: T1, EIF2C2/Ago2 PAZ domain (Ago2PAZ); test: ITC displacement (UMP titrated into dCMP-saturated protein); conditions: 25 mM potassium phosphate pH 7; 12°C; competition with UMP; unreliable (estimated, direct titration ND)
From the text: ITC displacement (UMP titrated into dCMP-saturated protein) on EIF2C2/Ago2 PAZ domain (Ago2PAZ)

T1 sequence (Q9UKV8 227-379): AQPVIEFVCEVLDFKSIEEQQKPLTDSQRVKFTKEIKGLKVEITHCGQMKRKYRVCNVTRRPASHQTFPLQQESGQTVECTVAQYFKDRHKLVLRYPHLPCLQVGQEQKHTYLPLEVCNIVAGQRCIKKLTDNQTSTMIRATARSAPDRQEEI

**Q.** With `Nc1ncnc2c1ncn2[C@@H]1O[C@H](COP(=O)(O)O)[C@@H](O)[C@H]1O` [AMP] as the compound, how does the “Estimated KB / M^-1” value [1] read?
**A.** The value was 143 M⁻¹.

**Q.** How did the Kd ([2]; read-out: Kd /) turn out when `Nc1ccn([C@@H]2O[C@H](COP(=O)(O)O)[C@@H](O)[C@H]2O)c(=O)n1` [CMP] was run?
**A.** The Kd was 40 µM.

**Q.** `Nc1nc2c(ncn2[C@@H]2O[C@H](COP(=O)(O)O)[C@@H](O)[C@H]2O)c(=O)[nH]1` [GMP] was tested. Which Kd ([2]; read-out: Kd /) did it give?
**A.** The Kd was 22 µM.

**Q.** For `Cc1cn([C@H]2C[C@H](O)[C@@H](COP(=O)(O)O)O2)c(=O)[nH]c1=O` [TMP], which Kd ([2]; read-out: Kd /) is on record?
**A.** Its Kd is 232 µM.

**Q.** How did the Kd ([2]; 25 mM potassium phosphate pH 7, one-set-of-sites model, fitted n 2.2, read-out: Kd /) turn out when `O=c1ccn([C@@H]2O[C@H](COP(=O)(O)O)[C@@H](O)[C@H]2O)c(=O)[nH]1` [UMP] was run?
**A.** The Kd was 15 µM.

**Q.** Which Kd ([2]; read-out: Ka (converted)) does the source give for `Cc1cn([C@@H]2O[C@H](COP(=O)(O)O)[C@@H](O)[C@H]2O)c(=O)[nH]c1=O` [compound 2, 5-Methyluridine-5′-O-monophosphate] here?
**A.** The Kd was 58.8 µM.

**Q.** With `Nc1ncnc2c1ncn2[C@H]1C[C@H](O)[C@@H](COP(=O)(O)O)O1` [dAMP] as the compound, how does the “Estimated KB / M^-1” value [3] read?
**A.** The value was 72 M⁻¹.

**Q.** Which “Estimated KB / M^-1” value [4] does the source give for `Nc1ccn([C@H]2C[C@H](O)[C@@H](COP(=O)(O)O)O2)c(=O)n1` [dCMP] here?
**A.** The value was 155 M⁻¹.

**Q.** With `Nc1nc2c(ncn2[C@H]2C[C@H](O)[C@@H](COP(=O)(O)O)O2)c(=O)[nH]1` [dGMP] as the compound, how does the Kd ([2]; read-out: Kd /) read?
**A.** Its Kd is 40 µM.

Source: paper PMC4008379, “Bioenergetics and Gene Silencing Approaches for Unraveling Nucleotide Recognition by the Human EIF2C2/Ago2 PAZ Domain” (PLoS ONE, 2014)
